Data: paper PMC9703800 (BMC Chemistry, 2022)
“Also recorded” adds a separate entry of the source.

Assays:
[1] = molecular target: T1, Acetylcholinesterase (AChE) (Electrophorus electricus, UniProt O42275); assay: biochemical; format: biochemical; details: for IC50: isolated compounds, mean ± SD, three experiments, read-out: AChEI (μM), IC50; for inhibition at 40 µg/mL: read-out: AChE inhibition (%)
T1 construct: Type V-S, lyophilized powder, from electric eel; purchased Sigma-Aldrich; host or cells: electric eel (natural source)
T1 sequence (O42275 24-633): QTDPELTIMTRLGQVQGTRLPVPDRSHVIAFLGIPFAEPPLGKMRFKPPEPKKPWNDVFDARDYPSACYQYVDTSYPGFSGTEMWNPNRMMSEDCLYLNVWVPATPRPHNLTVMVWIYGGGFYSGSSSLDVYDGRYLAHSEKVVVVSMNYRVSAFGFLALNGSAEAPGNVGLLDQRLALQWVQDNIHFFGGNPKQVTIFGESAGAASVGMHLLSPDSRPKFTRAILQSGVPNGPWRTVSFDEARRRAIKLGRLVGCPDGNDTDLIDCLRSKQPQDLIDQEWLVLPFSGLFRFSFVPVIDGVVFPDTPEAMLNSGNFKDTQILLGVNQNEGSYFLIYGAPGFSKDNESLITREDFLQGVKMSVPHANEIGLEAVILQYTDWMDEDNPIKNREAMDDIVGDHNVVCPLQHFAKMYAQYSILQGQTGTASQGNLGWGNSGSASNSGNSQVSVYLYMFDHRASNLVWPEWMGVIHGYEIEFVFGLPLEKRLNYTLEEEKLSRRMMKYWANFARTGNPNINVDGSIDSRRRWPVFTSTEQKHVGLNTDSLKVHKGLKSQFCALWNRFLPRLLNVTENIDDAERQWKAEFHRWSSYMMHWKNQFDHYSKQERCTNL

[2] = molecular target: butyrylcholinesterase (BChE) (Equus caballus, UniProt P81908); assay: biochemical; format: biochemical; details: for IC50: isolated compounds, mean ± SD, three experiments, read-out: BChEI (μM), IC50; for inhibition at 40 µg/mL: read-out: BChE inhibition (%)
butyrylcholinesterase (BChE), sequence (P81908 whole entry): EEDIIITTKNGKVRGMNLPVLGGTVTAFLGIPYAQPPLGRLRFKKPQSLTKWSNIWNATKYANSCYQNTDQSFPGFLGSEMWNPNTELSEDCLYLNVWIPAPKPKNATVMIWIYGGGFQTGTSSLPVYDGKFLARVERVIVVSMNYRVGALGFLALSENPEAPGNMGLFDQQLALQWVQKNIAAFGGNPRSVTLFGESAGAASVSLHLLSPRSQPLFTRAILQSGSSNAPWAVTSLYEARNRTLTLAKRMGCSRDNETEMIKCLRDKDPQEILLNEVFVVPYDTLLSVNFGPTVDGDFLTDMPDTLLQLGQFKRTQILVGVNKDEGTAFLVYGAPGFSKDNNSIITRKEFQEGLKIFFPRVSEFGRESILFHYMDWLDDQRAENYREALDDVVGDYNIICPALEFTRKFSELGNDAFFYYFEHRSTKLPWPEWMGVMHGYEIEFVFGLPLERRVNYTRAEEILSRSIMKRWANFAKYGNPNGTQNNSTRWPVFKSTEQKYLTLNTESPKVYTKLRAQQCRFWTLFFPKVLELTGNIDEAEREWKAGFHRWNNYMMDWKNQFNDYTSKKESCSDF

[3] = molecular target: T2, AChE (Electrophorus electricus, UniProt O42275); assay: Kinetic study of AChE inhibition (Lineweaver-Burk); format: biochemical
T2 construct: Type V-S, lyophilized powder, from electric eel; purchased Sigma-Aldrich; host or cells: electric eel (natural source)
T2 sequence (O42275 24-633): as the sequence (O42275 24-633) above
Description: (§1) Kinetic studies of compound 2 were performed for the inhibition of ChEs based on the Ellman's method, using various concentrations of the inhibitor [14]. […]

[4] = molecular target: BChE (Equus caballus, UniProt P81908); assay: Kinetic study of BChE inhibition (Lineweaver-Burk); format: biochemical
BChE, sequence (P81908 whole entry): as the sequence (P81908 whole entry) above
Description: as §1

[5] = system: PC12 cells; assay: Neuroprotectivity against H2O2-induced cell death in PC12 cells (MTT); format: cell-based; details: 50 µM, positive control, H2O2 400 μM

**Q.** `O=C(CCCCCCCCc1ccccc1)c1c(O)cccc1O` [Compound 1, 1-(2,6-Dihydroxyphenyl)-9-phenylnonan-1-one] was tested. Which “AChE inhibitory activity (in words)” value [1] did it give?
**A.** The value was “potent inhibitors; also recorded: strong inhibitors”.

**Q.** What about the IC50 [1] of the same compound?
**A.** The IC50 was 67.4 ± 1.52 µM.

**Q.** And the “BChE inhibitory activity (in words)” value [2]?
**A.** Its value is “potent inhibitors; also recorded: strong inhibitors”.

**Q.** What about the IC50 [2] of the same compound?
**A.** The IC50 was 27.16 ± 0.06 µM.

**Q.** `O=C(CCCCCCCCc1ccc(O)c(O)c1)c1c(O)cccc1O` [Compound 2, 1-(2,6-Dihydroxyphenyl)-9-(3,4-dihydroxyphenyl)nonan-1-one] was tested. Which “AChE inhibitory activity (in words)” value [1] did it give?
**A.** The value was “potent inhibitors; also recorded: strong inhibitors”.

**Q.** What about the IC50 [1] of the same compound?
**A.** Its IC50 is 25 ± 0.95 µM.

**Q.** And the “BChE inhibitory activity (in words)” value [2]?
**A.** The value was “potent inhibitors; also recorded: strong inhibitors”.

**Q.** And the IC50 [2]?
**A.** The IC50 was 22.36 ± 0.03 µM.

**Q.** And the “Mechanism of AChE inhibition” value ([3]; Lineweaver-Burk plot)?
**A.** The value was “non-competitive inhibition; also recorded: non-competitively inhibited”.

**Q.** What about the Ki ([3]; Lineweaver-Burk, inhibitor 0, 28, 56, 112 μM) of the same compound?
**A.** The Ki was 25 µM.

**Q.** What about the “Mechanism of BChE inhibition” value ([4]; Lineweaver-Burk plot) of the same compound?
**A.** Its value is “non-competitive inhibition; also recorded: non-competitively inhibited”.

**Q.** And the Ki ([4]; Lineweaver-Burk, inhibitor 0, 14, 28, 56 μM)?
**A.** The Ki was 22.4 µM.

**Q.** What does the source list for `COc1ccc(CC(C)C(C)Cc2ccc(O)c(O)c2)cc1OC` (stereo not drawn) [Compound 3, 4-(4-(3,4-Dimethoxyphenyl)-2,3-dimethylbutyl)benzene-1,2-diol]?
**A.** inhibition at 40 µg/mL [1]: 0%; inhibition at 40 µg/mL [2]: 47.4%

**Q.** How did the inhibition at 40 µg/mL [1] turn out when `COc1cc([C@H]2O[C@@H](c3ccc(O)c(OC)c3)[C@H](C)[C@@H]2C)ccc1O` [Compound 4, 4,4'-((2R,3R,4S,5S)-3,4-Dimethyltetrahydrofuran-2,5-diyl)bis(2-methoxyphenol)] was run?
**A.** The inhibition at 40 µg/mL was 0%.

**Q.** What about the inhibition at 40 µg/mL [2] of the same compound?
**A.** Its inhibition at 40 µg/mL is 45.8%.

**Q.** With `COc1cc(CC(C)C(C)Cc2ccc3c(c2)OCO3)ccc1O` (stereo not drawn) [Compound 5, 4-(4-(Benzo[d][1,3]dioxol-5-yl)-2,3-dimethylbutyl)-2-methoxyphenol] as the compound, how does the inhibition at 40 µg/mL [1] read?
**A.** The inhibition at 40 µg/mL was 12.8%.

**Q.** What about the inhibition at 40 µg/mL [2] of the same compound?
**A.** Its inhibition at 40 µg/mL is 54.4%.

**Q.** What does the source list for `COc1cc(C(OC)C(C)C(C)Cc2ccc3c(c2)OCO3)ccc1O` (stereo not drawn) [Compound 6, 4-(4-(Benzo[d][1,3]dioxol-5-yl)-1-methoxy-2,3-dimethylbutyl)-2-methoxyphenol]?
**A.** inhibition at 40 µg/mL [1]: 0%; inhibition at 40 µg/mL [2]: 44%

**Q.** How did the “Neuroprotection (%) against H2O2-induced cell death” value [5] turn out when `O=c1c(O)c(-c2ccc(O)c(O)c2)oc2cc(O)cc(O)c12` [quercetin] was run?
**A.** Its value is 72.79%.
